Source: EP2662081A1, “Therapeutic use of indole-dihydro-imidazole derivatives” (NOSCIRA, S.A., priority 2012, dated 2013)

Legend:
[1] = biological target: T1, human recombinant GSK3β (N-terminal 6His-tagged recombinant enzyme with an H350L mutation) (Homo sapiens, UniProt P49841); experiment: GSK-3 assay (Z'-LYTE FRET enzymatic activity); type: biochemical; details: 2 nM enzyme, 12.5 µM ATP, 2 µM Ser/Thr 9 peptide, 60 min at room temperature; concentration in M units; read-out: GSK-3 inhibition pEC50 average (converted)
T1 construct: 6His (N); purchased Millipore (Billerica, MA, USA)
T1 sequence (P49841 whole entry, stated change not applied): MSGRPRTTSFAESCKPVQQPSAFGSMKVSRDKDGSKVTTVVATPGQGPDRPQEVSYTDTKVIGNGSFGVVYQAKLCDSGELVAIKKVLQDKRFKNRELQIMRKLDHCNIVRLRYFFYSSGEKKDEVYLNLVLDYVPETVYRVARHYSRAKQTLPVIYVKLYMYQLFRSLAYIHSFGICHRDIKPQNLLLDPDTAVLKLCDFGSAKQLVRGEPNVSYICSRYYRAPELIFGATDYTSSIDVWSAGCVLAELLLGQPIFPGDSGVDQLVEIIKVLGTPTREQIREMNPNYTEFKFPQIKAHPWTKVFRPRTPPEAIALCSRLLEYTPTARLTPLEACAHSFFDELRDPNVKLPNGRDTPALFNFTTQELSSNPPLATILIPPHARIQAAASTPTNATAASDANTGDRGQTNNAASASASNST
Method: The enzymatic activity of GSK3β was determined with a commercial system based on the Z'-LYTE® technology, available from Life Technologies (Carlsbad, CA, USA), using human recombinant GSK3β (N-terminal 6His-tagged recombinant enzyme with an H350L mutation) from Millipore (Billerica, MA, USA) as the enzyme source. This technology utilizes the fluorescence resonance energy transfer ("FRET") process between fluorescein and coumarin. The assay principle is based on the differential sensitivity of phosphorylated and non-phosphorylated peptide to proteolytic cleavage, which precludes the energy transfer process between the two fluorophores attached to both sides of the cleavage site. […] The assay is performed in 384-well black plates, in a final volume of 10 µl, with 2 nM enzyme concentration in 50 mM Hepes pH 7.5, 50 mM MgCl2, 5 mM EGTA and 0.05% Brij-35, using 12.5 µM ATP and 2 µM substrate peptide. The latter is a synthetic peptide, provided by Invitrogen under the commercial name "Ser/Thr 9 peptide", and it is based upon the sequence of a GSK3β substrate protein (glycogen synthase I) containing Ser-641. The peptide is labeled at both ends with fluorescein and coumarin. The assay is carried out in the presence of different concentrations of the tested compound, at a final 1 % (v/v) DMSO concentration. After a 60 min incubation at room temperature, 5 µl of a commercial protease solution (sold by the same vendor in the assay kit) is added and a subsequent 1h incubation at room temperature is performed, before adding 5 µl of a suitable "stop solution", also provided by the vendor in the kit. After that, fluorescence intensity is recorded, monitoring emission at both 445 and 520 nm, upon excitation at 400 nm. An emission ratio is finally calculated, using the quotient among the emission at 445 nm divided by that at 520 nm.
The emission ratios for each concentration of compound are finally used to calculate the pEC50 value, according to the procedure described above for Cdk5.

[2] = biological target: T2, human recombinant Cdk5/p35 heterodimer (Homo sapiens, UniProt Q00535); experiment: Cdk5 assay (Z'-LYTE FRET enzymatic activity); type: biochemical; details: 10 nM enzyme, 12.5 µM ATP, 2 µM Ser/Thr 12 peptide, 60 min at room temperature; concentration in M units; read-out: Cdk5 inhibition pEC50 average (converted)
T2 construct: purchased Invitrogen (Life Technologies)
T2 sequence (Q00535 whole entry): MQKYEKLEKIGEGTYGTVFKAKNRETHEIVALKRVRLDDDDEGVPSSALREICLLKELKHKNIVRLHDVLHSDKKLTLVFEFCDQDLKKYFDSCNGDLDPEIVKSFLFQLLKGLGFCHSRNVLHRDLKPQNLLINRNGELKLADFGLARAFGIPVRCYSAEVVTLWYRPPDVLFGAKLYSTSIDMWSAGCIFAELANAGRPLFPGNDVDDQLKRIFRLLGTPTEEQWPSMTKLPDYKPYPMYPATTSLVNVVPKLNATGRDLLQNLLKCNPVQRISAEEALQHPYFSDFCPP
T2 sequence (Q15078 whole entry partner): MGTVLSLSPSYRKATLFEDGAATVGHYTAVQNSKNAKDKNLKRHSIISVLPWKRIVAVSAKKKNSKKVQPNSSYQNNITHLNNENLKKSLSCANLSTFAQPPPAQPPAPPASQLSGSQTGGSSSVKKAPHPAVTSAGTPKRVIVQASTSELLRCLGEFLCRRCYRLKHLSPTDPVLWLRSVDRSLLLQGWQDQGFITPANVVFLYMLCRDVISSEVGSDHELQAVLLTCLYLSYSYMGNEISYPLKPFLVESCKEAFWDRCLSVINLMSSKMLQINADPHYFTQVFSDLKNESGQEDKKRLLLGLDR
Method: The enzymatic activity of Cdk5 was determined with a commercial system based on the Z'-LYTE® technology, available from Life Technologies (Carlsbad, CA, USA), using human recombinant Cdk5/p35 heterodimer, also available from Invitrogen as the enzyme source. This technology utilizes the fluorescence resonance energy transfer ("FRET") process between fluorescein and coumarin. The assay principle is based on the differential sensitivity of phosphorylated and non-phosphorylated peptide to proteolytic cleavage, which precludes the energy transfer process between the two fluorophores attached to both sides of the cleavage site. […] The assay is performed in 384-well black plates, in a final volume of 10 µl, with 10 nM enzyme concentration, in 50 mM Hepes pH 7.5, 50 mM MgCl2, 5 mM EGTA and 0.05% Brij-35, using 12.5 µM ATP and 2 µM substrate peptide. The latter is a synthetic peptide provided by Invitrogen, under the commercial name "Ser/Thr 12 peptide", and it is based upon the sequence of Cdk7, containing Ser-164 and a (Ser/Thr)-Pro-X-(Lys/Arg) consensus sequence, wherein X is any residue. The peptide is labeled at both ends with fluorescein and coumarin. The assay is carried out in the presence of different concentrations of the tested compound, at a final 1% (v/v) DMSO concentration. After a 60 min incubation, at room temperature, 5 µl of a commercial protease solution (sold by the same vendor in the assay kit) is added and a subsequent 1h incubation at room temperature is performed, before adding 5 µl of a suitable "stop solution", also provided by the vendor in the kit. After that, fluorescence intensity is recorded, monitoring emission at both 445 and 520 nm, upon excitation at 400 nm. An emission ratio is finally calculated, using the quotient among the emission at 445 nm divided by that at 520 nm.
The emission ratio of each tested sample is normalized to that of the control wells, so that for every compound concentration the percentage of inhibition is calculated by using the following equation: % Inhibition = 100⋅(E-S)/(E-B) [formula] where "S" is the emission from the wells with the tested sample, "E" is the average emission from control wells with full enzyme activity and "B" is the average emission from wells with full enzyme inhibition. Inhibition values obtained for every compound concentration are finally used to calculate the pEC50 of the tested compound, this parameter being the negative value of the logarithm of the compound concentration, in M units, causing 50% of its maximum effect (i.e., the higher the pEC50 value the higher the potency of the compound). For that purpose the data were fitted to the following equation using the nonlinear regression function of GraphPad™ Prism 5.0 (GraphPad Software Inc.): % Inhibition = L + (H-L)/(1 + 10^(((logC+pEC50))^N)) [formula] where "L" is the lower asymptote of the theoretical sigmoidal curve, "H" is the higher asymptote, "C" is the concentration of compound in M units and "N" is the Hill coefficient.

SMILES | EC50 [1] [µM] | EC50 [2] [µM]
CN1CC(c2c(C(=O)O)[nH]c3cc(O)c(Br)cc23)N(C)C1=N (centres unmarked) [Compound 4] | 15.5 | 0.0741
CN1C(=N)N(C)C(c2c(C(=O)O)[nH]c3ccc(Br)cc23)C1O (centres unmarked) [Compound 5] | 97.7 | 3.09
CN1CC(c2c(C(=O)O)[nH]c3ccc(Br)cc23)N(C)C1=N (centres unmarked) [Compound 2] | 74.1 | 2.82
CN1C(=N)N(C)C(c2c(C(=O)O)[nH]c3cc(O)c(Br)cc23)C1O (centres unmarked) [Compound 6] | 8.32 | 0.049
CN1C(=N)NCC1c1c(C(=O)O)[nH]c2cc(O)c(Br)cc12 (centres unmarked) [Compound 3] | 11.2 | 0.0955
CN1C(N)=NCC1c1c(C(=O)O)[nH]c2ccccc12 (centres unmarked) [Compound 7] | 42.7 | 0.933
CN1C(=N)NCC1c1c(C(=O)O)[nH]c2ccc(Br)cc12 (centres unmarked) [Compound 1] | 35.5 | 1.1
